Results reported in patent US4182896A, “Indane derivatives” (Societe Hexachimie, priority 1974, dated 1980).
Counter-ions that a name gives are not always drawn.

Legend:
Solubility in water = format: physicochemical; conditions: white powder, sodium salt
[1] = test system: SPF male rats, OFA strain; experiment: Anti-inflammatory activity: paw swelling after subcutaneous plantar injection of carraghenine, oral administration; format: in vivo; conditions: for ED50: read-out: ED50 (50% effective dose), anti-inflammatory; for inhibition in vivo at 32 mg/kg: 32 mg/kg oral
Protocol: Anti-inflammatory activity
The products to be tested are administered orally to batches of 12 SPF male rats, OFA strain, weighing 120-130 g, 2 hours and 30 minutes (1/2 dose each time) before the subcutaneous plantar injection of 0.05 ml of a 1% strength solution of carraghenine. The volume of the back paw which received the phlogogenic agent is measured at regular intervals. The 50% effective dose is calculated at the moment of greatest swelling of the controls.
The results are given in Tables I to IV below, in which the percentage reduction in the inflammation is noted.

[2] = test system: male mice (SPF1, OF1 strain); experiment: Analgesic activity: inhibition of pain reactions (abdominal twistings) after intraperitoneal phenylbenzoquinone, oral administration; format: in vivo; conditions: for ED50: read-out: ED50 (50% effective dose), analgesic; for inhibition in vivo at 8 mg/kg: 8 mg/kg oral; for inhibition in vivo at 4 mg/kg: 4 mg/kg oral; for percentage inhibition of pain reactions: mouse
Protocol: The products tested are administered orally to batches of 6 male mice (SPF1, OF1 strain) weighing 19-20 g.
1 hour later, 0.3 ml of a 0.02% strength solution of phenylbenzoquinone is injected intraperitoneally into each mouse and, from the 5th to the 10th minute after the latter treatment, the number of pain reactions (abdominal twistings) is counted.
Table V to VIII below give the percentage inhibition of these reactions.

[3] = Rattus norvegicus, po, 64 mg/kg oral, carraghenine, read-out: percentage reduction in the inflammation
[4] = Rattus norvegicus, po, 128 mg/kg oral, carraghenine, read-out: percentage reduction in the inflammation
[5] = Rattus norvegicus, po, 256 mg/kg oral, carraghenine, read-out: percentage reduction in the inflammation
[6] = Rattus norvegicus, po, at the moment of greatest swelling of the controls
[7] = Mus musculus, po, 16 mg/kg oral, read-out: percentage inhibition of pain reactions
[8] = Mus musculus, po, 32 mg/kg oral, read-out: percentage inhibition of pain reactions
[9] = Mus musculus, po, 64 mg/kg oral, read-out: percentage inhibition of pain reactions
[10] = Mus musculus, po, 128 mg/kg oral, read-out: percentage inhibition of pain reactions
[11] = Mus musculus, po, 256 mg/kg oral, read-out: percentage inhibition of pain reactions
[12] = Rattus norvegicus, po, 16 mg/kg oral, carraghenine, read-out: percentage reduction in the inflammation
[13] = Rattus norvegicus, po, carraghenine, read-out: percentage reduction in the inflammation
[14] = Mus musculus, po, read-out: percentage inhibition of pain reactions
[15] = Rattus norvegicus, po, 4 mg/kg oral, carraghenine, read-out: percentage reduction in the inflammation

| SMILES | inhibition in vivo at 64 mg/kg [1, 3] | inhibition in vivo at 128 mg/kg [1, 4] | inhibition in vivo at 256 mg/kg [1, 5] | ED50 [1, 6] | inhibition in vivo at 16 mg/kg [2, 7] | inhibition in vivo at 32 mg/kg [2, 8] | inhibition in vivo at 64 mg/kg [2, 9] | inhibition in vivo at 128 mg/kg [2, 10] | inhibition in vivo at 256 mg/kg [2, 11] | ED50 ([2]; Mus musculus, po) | inhibition in vivo at 16 mg/kg [1, 12] | inhibition in vivo at 32 mg/kg [1, 13] | inhibition in vivo at 8 mg/kg [2, 14] | inhibition in vivo at 4 mg/kg [1, 15] | further results |
| --- | --- | --- | --- | --- | --- | --- | --- | --- | --- | --- | --- | --- | --- | --- | --- |
| CC1CC(C)c2cc(C(C)C(=O)O)ccc21 (stereo not drawn) [Example 6, Sodium salt of 2-methyl-[1,3-dimethyl-indanyl-(5)]-acetic acid] | 16% | 39% | 44% | > 256 mg/kg | 28% | 41% | 59% | 78% | 72% | 40 mg/kg |  |  |  |  | solubility in water (Solubility in water): soluble in water |
| CC1Cc2ccc(C(C)C(=O)O)cc2C1 (stereo not drawn) [Example 15, Sodium salt of 2-methyl-[2-methyl-indanyl-(5)]-acetic acid] | 27% | 41% | 68% | 160 mg/kg | 18% | 68% | 91% |  |  | 23 mg/kg | 11% | 20% | 14% |  | solubility in water (Solubility in water): soluble in water; inhibition in vivo at 512 mg/kg ([1]; Rattus norvegicus, po, 512 mg/kg oral, carraghenine, read-out: percentage reduction in the inflammation): 72% |
| CC(C(=O)OCCN(C)C)c1ccc2c(c1)CC(C(C)C)C2 (stereo not drawn) [Example 27, Hydrochloride of the dimethylaminoethyl ester of 2-methyl-[2-isopropyl-indanyl-(5)]-acetic acid] | 61% | 64% | 76% | 22 mg/kg | 42% | 69% | 94% | 99% |  |  | 54% |  | 7% | 29% |  |
| CCN(CC)CCOC(=O)C(C)c1ccc2c(c1)CC(C(C)C)C2 (stereo not drawn) [Example 28, Oxalate of the diethylaminoethyl ester of 2-methyl-[2-isopropylindanyl-(5)]-acetic acid] | 66% | 72% | 79% | 24 mg/kg | 40% | 66% | 86% |  |  | 20 mg/kg | 31% |  | 20% | 37% | inhibition in vivo at 4 mg/kg [2, 14]: 21% |
| CC(C(=O)OC(C)(C)CN(C)C)c1ccc2c(c1)CC(C(C)C)C2.O=C(O)/C=C\C(=O)O (stereo not drawn) [Example 29, Maleate of the dimethylamino-α-dimethyl-ethyl ester of 2-methyl-[2-isopropyl-indanyl-(5)]-acetic acid] |  |  |  |  |  |  |  |  |  |  |  |  |  |  | percentage reduction in the inflammation ([1]; 4 mg/kg oral, rat, carraghenine): 12%; percentage reduction in the inflammation ([1]; 16 mg/kg oral, rat, carraghenine): 35%; percentage reduction in the inflammation ([1]; 64 mg/kg oral, rat, carraghenine): 45%; percentage reduction in the inflammation ([1]; 128 mg/kg oral, rat, carraghenine): 72%; percentage reduction in the inflammation ([1]; 256 mg/kg oral, rat, carraghenine): 65%; ED50 (50% effective dose), anti-inflammatory ([1]; oral, rat, at the moment of greatest swelling of the controls): 55 mg/kg; percentage inhibition of pain reactions ([2]; 16 mg/kg oral): 8%; percentage inhibition of pain reactions ([2]; 32 mg/kg oral): 43%; percentage inhibition of pain reactions ([2]; 64 mg/kg oral): 57%; percentage inhibition of pain reactions ([2]; 128 mg/kg oral): 86%; percentage inhibition of pain reactions ([2]; 256 mg/kg oral): 96% |
| CC(C(=O)OCCN1CCCCC1)c1ccc2c(c1)CC(C(C)C)C2 (stereo not drawn) [Example 30, Oxalate of the piperidine-ethyl ester of 2-methyl-[2-isopropyl-indanyl-(5)]-acetic acid] | 55% | 47% | 52% |  | 11% | 32% | 73% | 99% |  | 37 mg/kg | 32% |  |  | 10% |  |
| CC(C(=O)O)c1ccc2c(c1)CC(C(C)C)C2 (stereo not drawn) [Example 31, Sodium salt of 2-methyl-[2-isopropyl-indanyl-(5)]-acetic acid] |  |  |  |  |  |  |  |  |  |  |  |  |  |  | solubility in water (Solubility in water): soluble in water |
| CC(C(=O)OCCN1CCCC1)c1ccc2c(c1)CC(C(C)C)C2 (stereo not drawn) [Example 32, Maleate of the pyrrolidino-ethyl ester of 2-methyl-[2-isopropyl-indanyl-(5)]-acetic acid] | 59% | 55% |  | 65 mg/kg | 47% | 79% | 99% |  |  | 18 mg/kg | 21% |  | 6% | 19% |  |
| CC(CO)c1ccc2c(c1)CC(C(C)C)C2 (stereo not drawn) [Example 33, 2-Methyl-β-[2-isopropyl-indanyl-(5)]-ethanol] | 52% | 58% | 63% | 85 mg/kg | 68% | 90% |  |  |  | 9 mg/kg | 13% | 34% | 42% |  | inhibition in vivo at 8 mg/kg ([1]; Rattus norvegicus, po, 8 mg/kg oral, carraghenine, read-out: percentage reduction in the inflammation): 0%; inhibition in vivo at 2 mg/kg ([2]; Mus musculus, po, 2 mg/kg oral, read-out: percentage inhibition of pain reactions): 6%; inhibition in vivo at 4 mg/kg [2, 14]: 25% |
| CCC1Cc2ccc(C(C)CO)cc2C1 (stereo not drawn) [Example 34, 2-Methyl-β-[2-ethyl-indanyl-(5)]-ethanol] | 51% | 60% | 61% | 50 mg/kg |  | 12% | 22% | 60% | 94% | 95 mg/kg | 46% | 42% |  |  |  |
| CC1Cc2ccc(CCO)cc2C1 (stereo not drawn) [Example 35, β-[2-Methyl-indanyl-(5)]-ethanol] | 56% | 76% | 89% | 35 mg/kg |  | 10% | 27% | 69% | 95% | 87 mg/kg | 43% | 42% |  |  |  |
| CC(C)C1Cc2ccc(CCO)cc2C1 (stereo not drawn) [Example 37, β-[2-Isopropyl-indanyl-(5)]-ethanol] | 21% | 41% | 30% | > 256 mg/kg | 0% | 40% | 55% | 62% | 81% | 60 mg/kg | 0% | 1% |  |  |  |
